Experimental data as given in patent publication US8815892B2, “P2X7R antagonists and their use” (Affectis Pharmaceuticals AG, priority 2008, dated 2014).

Columns and labels:
[1] = tested on: LPA-induced neuropathic pain in C57/Bl6 mice; assay: Lysophosphatidic acid (LPA)-induced neuropathy, mechanical hyperalgesia (digital Randall-Selitto); type: in vivo, mouse; conditions: 1 hour after dosing
Procedure: The therapeutic effects of the compounds of the present invention were assessed in the lysophosphatidic acid (LPA)-induced neuropathy in mice. This model is commonly used to evaluate the potential analgesic activity of compounds designed to treat neuropathic pain in humans (Inoue et al. (2004) Nat Med 10: 712-718; Inoue et al. (2008). Mol Pain 4(6) doi:10.1186/1744-8069-4-6). In this example, a representative compound of the invention, 4-chloro-N-(cycloheptylmethyl)-1-(2-hydroxyethyl)-1H-indole-3-carboxamide (Example 54), was tested.
Neuropathic pain was induced in male, C57/Bl6 mice (Harlan) by an intrathecal injection of 1 nmol LPA (prepared in saline; ENZO) in a 5 μL volume into the spinal cord. Pre-LPA injection, post-LPA injection and post-treatment values for mechanical hyperalgesia were evaluated using a digital Randall-Selitto device (dRS; IITC Life Sciences). Paw compression threshold was measured once at each time point for the left and right paws. […] The readings from the left and right paws were averaged at each time point. […]
Vehicle (0.5% carboxymethylcellulose (CMC)) or between 125-500 mg/kg of a compound of the present invention (dissolved in 0.5% CMC) were administered via oral gavage two days after LPA injection. […] If a significant main effect was detected, Dunnetts' post hoc test was used to compare treatment to vehicle treated animals. […]

[2] = tested on: EAE in SJL mice; assay: Relapsing-remitting experimental autoimmune encephalomyelitis (EAE), PLP139-151/CFA model of multiple sclerosis; type: in vivo, mouse; conditions: SJL female mice
Procedure: The therapeutic effects of the compounds of the present invention were assessed in a mouse model of relapsing-remitting multiple sclerosis MS. The relapsing-remitting experimental autoimmune encephalomyelitis (EAE) which develops in SJL mice after immunization with the Proteolipid Protein PLP139-151 and Complete Freund's Adjuvant (CFA) is the mouse model which most closely resembles human remitting/relapsing MS (see Webb et al (2004) J Neuroimmunol 153:108-121). In this example, a representative compound of the invention, 4-chloro-N-(cycloheptylmethyl)-1-(2-hydroxyethyl)-1H-indole-3-carboxamide (Example 54), was tested.
EAE was induced in SJL female mice (Jackson Labs), using a PLP139-151/CFA Emulsion (Hooke Laboratories, Lawrence Mass.) according to the manufacturer's recommended protocol. Mice were injected subcutaneously at four sites (0.05 mL at each site) in the back with the emulsion. Two sites of injection were in the area of the upper back, approximately 1 cm caudal of the neck line. The other two sites were in the area of the lower back, approximately 2 cm cranial of the base of the tail. Individual animals were then examined daily for clinical signs of neurological deficits scored on a 0 to 5 scale as follows: 0, no abnormality; 0.5, stiff tail; 1, limp tail; 1.5, limp tail with inability to right; 2, paralysis of one limb; 2.5, paralysis of one limb and weakness of one other limb; 3, complete paralysis of both hind limbs; 4, moribund; 5, death. Daily scoring for signs of EAE started on Day 7 after immunization with the first symptoms observed between Days 11 and 15 after immunization. Treatment for each animal began on the second day that the animal developed EAE symptoms. […] The effect of treatment on development of EAE relapses was evaluated by comparing incidence and severity of relapses, and the end scores between the compound-treated groups and the vehicle group. Incidence of relapse were compared using two-tailed Fisher's exact test and the end scores between vehicle and treatment groups were calculated using Wilcoxon's non-parametric test. […]

Compound	mechanical hyperalgesia (paw compression thresholds) compared to pre-treatment baseline ([1]; 100 mg/kg intraperitoneal two days after LPA injection)	treated animals that developed relapses ([2]; 125 to 500 mg/kg twice daily oral gavage from second day of EAE symptoms, vehicle 50.0%, p=0.0038) [%]	average EAE score on Day 40 (end of the study) ([2]; 125 to 500 mg/kg twice daily oral gavage, 0 to 5 scale, vehicle 1.34, p=0.0021)	day of relapse (the one mouse of the group that relapsed) ([2]; 125 to 500 mg/kg twice daily oral gavage, vehicle mean day of relapse 22, delay p=0.0039) [days]	mean paw compression thresholds compared to pre-treatment baseline ([1]; 125-500 mg/kg oral gavage two days after LPA injection, p<0.05)
NCC1(CC(=O)O)CCCCC1 [gabapentin, reference compound]	slight decrease in mechanical hyperalgesia	–	–	–	–
O=C(NCC1CCCCCC1)c1cn(CCO)c2cccc(Cl)c12 [Example 54, 4-chloro-N-(cycloheptylmethyl)-1-(2-hydroxyethyl)-1H-indole-3-carboxamide]	–	6	0.50	40	significantly increased mean paw compression thresholds
